In patent US7138231B2 (priority 2000, dated 2006):
Entries after “also recorded” stand apart in the source; their conditions may differ.

Columns and labels:
[1] = system: HIV-1 patient-derived protease and reverse transcriptase segments (N88S in PR) in resistance test vectors; assay: Phenotypic drug susceptibility test with resistance test vectors from patient samples; assay type: cell-based; settings: for Fold Change vs. reference: N88S
[2] = system: HIV-1 patient viruses with protease L90M; assay: Phenotypic susceptibility profiles of 58 patient virus samples with L90M, no other primary mutations; assay type: cell-based; settings: for % FC > 2.5: IDV; for % w with IDV FC > 2.5: L90M
[3] = system: HIV-1 patient viruses with protease L90M; assay: Phenotypic susceptibility profiles of 333 patient virus samples with L90M (not 30 or 50); assay type: cell-based
[4] = system: HIV-1 variants with protease substitutions; settings: cited from earlier work
[5] = system: HIV-1 protease site-directed mutants (N88S, L63P, V77I, M46L) in resistance test vector; assay: Phenotypic susceptibility assay of resistance test vectors with site-directed mutations in PR
From the text: The resistance test vectors containing a functional luciferase gene cassette were constructed and host cells were transfected with the resistance test vector DNA. […] The resistance test vector viral particles produced by transfecting the resistance test vector DNA into host cells, either in the presence or absence of protease inhibitors, were used to infect target host cells grown either in the absence of NRTI or NNRTI or in the presence of increasing concentrations of the drug. Luciferase activity in infected target host cells in the presence of drug was compared to the luciferase activity in infected target host cells in the absence of drug. […] The IC50 values were determined by plotting percent drug inhibition vs. log10 drug concentration.
Host cells were seeded in 10-cm-diameter dishes and were transfected one day after plating with resistance test vector plasmid DNA and the envelope expression vector. Transfections were performed using a calcium-phosphate co-precipitation procedure. The cell culture media containing the DNA precipitate was replaced with fresh medium, from one to 24 hours, after transfection. Cell culture media containing resistance test vector viral particles was harvested one to four days after transfection and was passed through a 0.45-mm filter before being stored at −80° C. HIV capsid protein (p24) levels in the harvested cell culture media were determined by an EIA method as described by the manufacturer (SIAC; Frederick, Md.). Before infection, target cells (293 and 293/T) were plated in cell culture media. Control infections were performed using cell culture media from mock transfections (no DNA) or transfections containing the resistance test vector plasmid DNA without the envelope expression plasmid. One to three or more days after infection the media was removed and cell lysis buffer (Promega) was added to each well. Cell lysates were assayed for luciferase activity. The inhibitory effect of the drug was determined using the following equation: % luciferase inhibition=[1−(RLUluc[drug]RLUluc)]×100 where RLUluc [drug] is the relative light unit of luciferase activity in infected cells in the presence of drug and RLUluc is the Relative Light Unit of luciferase activity in infected cells in the absence of drug. IC50 values were obtained from the sigmoidal curves that were generated from the data by plotting the percent inhibition of luciferase activity vs. the log10 drug concentration.
Mutations are introduced into the resistance test vector through any of the widely known methods for site-directed mutagenesis. […] A resistance test vector containing the specific mutation or group of mutations are then tested using the phenotypic susceptibility assay described above and the susceptibility profile is compared to that of a genetically defined wild-type (drug susceptible) resistance test vector which lacks the specific mutations.
Resistance test vectors were constructed containing the N88S mutation alone and in combination with other substitutions in PR (L63P, V77I and M46L) known to modulate the HIV susceptibility to PRIs. Mutations were introduced into the resistance test vector using the mega-primer PCR method for site-directed mutagenesis.

SMILES: CC(C)(C)NC(=O)[C@@H]1CN(Cc2cccnc2)CCN1C[C@@H](O)C[C@@H](Cc1ccccc1)C(=O)N[C@H]1c2ccccc2C[C@H]1O [indinavir]
- change in susceptibility ([1]; patient sample RTV-360): decrease
- change in susceptibility ([1]; patient sample RTV-627): decrease
- change in susceptibility ([1]; patient sample RTV-0732): decrease; also recorded: decreased susceptibility
- change in susceptibility ([1]; patient sample RTV-0910): decrease
- change in susceptibility ([1]; patient sample RTV-1208): decrease
- change in susceptibility ([1]; patient sample RTV-3542): decrease
- change in susceptibility ([1]; patient sample RTV-3654): decrease
- % FC > 2.5 ([2]; L90M + mutation at position 46): 88%
- % FC > 2.5 ([2]; L90M + mutation at position 71): 89%
- % FC > 2.5 ([2]; L90M + mutation at position 71, listed as IDV): 89%
- % FC > 2.5 ([2]; L90M + mutation at position 73): 89%
- % FC > 2.5 ([2]; L90M + mutation at position 73, listed as IDV): 89%
- % FC > 2.5 ([2]; listed as 90: all viruses with L90M): 69%
- % w with IDV FC > 2.5 ([2]; number of secondary mutations 0): 69%
- % w with IDV FC > 2.5 ([2]; number of secondary mutations 1): 70%
- % w with IDV FC > 2.5 ([2]; number of secondary mutations 2): 70%
- % w with IDV FC > 2.5 ([2]; number of secondary mutations 3): 80%
- % w with IDV FC > 2.5 ([2]; number of secondary mutations 4): 87%
- % w with IDV FC > 2.5 ([2]; number of secondary mutations 5): 100%
- % w with IDV FC > 2.5 ([2]; number of secondary mutations 6): 100%
- wt % > 2.5 ([3]; Indinavir FC>2.5, L90M, position 10 wild type): 66.7%
- wt % > 2.5 ([3]; Indinavir FC>2.5, L90M, position 13 wild type): 87.1%
- wt % > 2.5 ([3]; Indinavir FC>2.5, L90M, position 20 wild type): 81.2%
- wt % > 2.5 ([3]; Indinavir FC>2.5, L90M, position 46 wild type): 76.3%
- wt % > 2.5 ([3]; Indinavir FC>2.5, L90M, position 53 wild type): 83.2%
- wt % > 2.5 ([3]; Indinavir FC>2.5, L90M, position 54 wild type): 76.0%
- wt % > 2.5 ([3]; Indinavir FC>2.5, L90M, position 63 wild type): 50.0%
- wt % > 2.5 ([3]; Indinavir FC>2.5, L90M, position 71 wild type): 69.0%
- wt % > 2.5 ([3]; Indinavir FC>2.5, L90M, position 73 wild type): 80.6%
- wt % > 2.5 ([3]; Indinavir FC>2.5, L90M, position 74 wild type): 87.0%
- wt % > 2.5 ([3]; Indinavir FC>2.5, L90M, position 82 wild type): 78.3%
- wt % > 2.5 ([3]; Indinavir FC>2.5, L90M, position 84 wild type): 79.0%
- wt % > 2.5 ([3]; Indinavir FC>2.5, L90M, position 95 wild type): 83.5%
- mt % > 2.5 ([3]; Indinavir FC>2.5, listed as 90: all samples with L90M): 84.7%
- wt % > 10 ([3]; Indinavir FC>10, L90M, position 10 wild type): 23.1%
- wt % > 10 ([3]; Indinavir FC>10, L90M, position 20 wild type): 47.2%
- wt % > 10 ([3]; Indinavir FC>10, L90M, position 36 wild type): 48.9%
- wt % > 10 ([3]; Indinavir FC>10, L90M, position 46 wild type): 44.4%
- wt % > 10 ([3]; Indinavir FC>10, L90M, position 54 wild type): 36.3%
- wt % > 10 ([3]; Indinavir FC>10, L90M, position 55 wild type): 51.8%
- wt % > 10 ([3]; Indinavir FC>10, L90M, position 62 wild type): 45.3%
- wt % > 10 ([3]; Indinavir FC>10, L90M, position 71 wild type): 37.0%
- wt % > 10 ([3]; Indinavir FC>10, L90M, position 72 wild type): 50.0%
- wt % > 10 ([3]; Indinavir FC>10, L90M, position 74 wild type): 57.3%
- wt % > 10 ([3]; Indinavir FC>10, L90M, position 82 wild type): 39.9%
- wt % > 10 ([3]; Indinavir FC>10, L90M, position 84 wild type): 46.3%
- wt % > 10 ([3]; Indinavir FC>10, L90M, position 85 wild type): 52.3%
- wt % > 10 ([3]; Indinavir FC>10, L90M, position 95 wild type): 51.6%
- mt % > 10 ([3]; Indinavir FC>10, listed as 90: all samples with L90M): 53.8%
- loss of susceptibility ([4]; mutant HIV-1 clones with mutations at residues 46, 63, and 82): fourfold
- loss of susceptibility compared with the wild type ([4]; selection in MT-4 cells, substitutions at residues 32, 46, 71, and 82): 6.1 fold
- change in susceptibility compared to wild type control RTV ([5]; L63P-N88S-RTV): decreased susceptibility
- change in susceptibility compared to wild type control RTV ([5]; L63P-V77I-N88S-RTV): decrease in susceptibility; also recorded: resistance
- change in susceptibility compared to wild type control RTV ([5]; M46L-L63P-N88S-RTV): slight decrease in susceptibility
- change in susceptibility compared to wild type control RTV ([5]; M46L-L63P-V77I-N88S-RTV): decrease in susceptibility

SMILES: Cc1c(O)cccc1C(=O)N[C@@H](CSc1ccccc1)[C@H](O)CN1C[C@H]2CCCC[C@H]2C[C@H]1C(=O)NC(C)(C)C [nelfinavir]
- change in susceptibility ([1]; patient sample RTV-360): decrease
- change in susceptibility ([1]; patient sample RTV-627): decrease
- change in susceptibility ([1]; patient sample RTV-0732): decrease; also recorded: decreased susceptibility
- change in susceptibility ([1]; patient sample RTV-0910): decrease
- change in susceptibility ([1]; patient sample RTV-1208): decrease
- change in susceptibility ([1]; patient sample RTV-3542): decrease
- change in susceptibility ([1]; patient sample RTV-3654): decrease
- increase in 90% effective concentration ([4]; I84V and D30N single mutants and M46I/I84V double mutant of HIV-1 NL4-3): fivefold
- change in susceptibility ([4]; M46I, L63P, or A71V alone): no change in susceptibility
- reduced susceptibility ([4]; variant P22, 22 serial passages of HIV-1 NL4-3): sevenfold
- decreased susceptibility ([4]; variant P28, additional six passages): 30 fold
- change in susceptibility compared to wild type control RTV ([5]; L63P-N88S-RTV): decreased susceptibility
- change in susceptibility compared to wild type control RTV ([5]; L63P-V77I-N88S-RTV): decrease in susceptibility; also recorded: resistance
- change in susceptibility compared to wild type control RTV ([5]; L63P-V77I-RTV): slight decrease in susceptibility
- change in susceptibility compared to wild type control RTV ([5]; M46L-L63P-N88S-RTV): decrease in susceptibility
- change in susceptibility compared to wild type control RTV ([5]; M46L-L63P-V77I-N88S-RTV): decrease in susceptibility
- change in susceptibility compared to wild type control RTV ([5]; N88S-RTV): slightly less susceptible

SMILES: CC(C)c1nc(CN(C)C(=O)N[C@H](C(=O)N[C@@H](Cc2ccccc2)C[C@H](O)[C@H](Cc2ccccc2)NC(=O)OCc2cncs2)C(C)C)cs1 [ritonavir]
- Fold Change vs. reference ([1]; patient sample 360, prior PRI IDV, PR I13V, K20M, M36V, N37A, M46I, I62V, L63P, I93L): 1.49 fold
- Fold Change vs. reference ([1]; patient sample 627, prior PRI IDV, PR I13I/V, E35D, M46L, L63P, I64V, I73V): 1.50 fold
- Fold Change vs. reference ([1]; patient sample 0732, prior PRI NFV, PR K14R, I15V, K20T, E35D, M36I, R41K, I62V, L63Q): 1.72 fold
- Fold Change vs. reference ([1]; patient sample 0910, prior PRI NFV, PR M46I, L63P, V77I, I93I/L): 1.85 fold
- Fold Change vs. reference ([1]; patient sample 1208, prior PRI NFV, PR I62V, L63P, V77I): 1.22 fold
- Fold Change vs. reference ([1]; patient sample 3542, prior PRI IDV, PR I13V, K14R, N37D, M46I, L63P, I93L): 3.36 fold
- Fold Change vs. reference ([1]; patient sample 3654, PR I13V, R41K, M46I, L63P, V77I, I93L): 1.95 fold
- change in susceptibility ([1]; patient sample RTV-3542): decrease
- Percent of viruses with indicated primary mutation(s) with reduced susceptibility (fold change in IC50 > 2.5) ([3]; L90M): 93.4%
- Percent of viruses with indicated primary mutation(s) with reduced susceptibility (fold change in IC50 > 10) ([3]; L90M): 66.1%
- reduction in sensitivity ([4]; I84V substitution): 10 fold
- level of resistance ([4]; I84V with addition of V82F): up to 20 fold
- change in drug susceptibility ([4]; M46I, L63P, A71V introduced into wild-type NL4-3): did not result in significant changes in drug susceptibility
- change in susceptibility compared to wild type control RTV ([5]; N88S-RTV): more susceptible
- Fold Change vs. reference ([5]; site-directed mutation N88S): 0.36 fold
- Fold Change vs. reference ([5]; site-directed mutations L63P): 1.27 fold
- Fold Change vs. reference ([5]; site-directed mutations L63P, N88S): 0.77 fold
- Fold Change vs. reference ([5]; site-directed mutations L63P, V77I): 1.73 fold
- Fold Change vs. reference ([5]; site-directed mutations L63P, V77I, N88S): 1.39 fold
- Fold Change vs. reference ([5]; site-directed mutations M46L, L63P, N88S): 0.85 fold
- Fold Change vs. reference ([5]; site-directed mutations M46L, L63P, V77I, N88S): 1.33 fold
